According to patent publication US8802597B2, “Herbicidal pyrimidines” (E I du Pont de Nemours and Company, priority 2003, dated 2014):
Where two headings read alike, the source gives them in different places.

Tests used:
Assay in all cases: Test C pre/postemergence
Format in all cases: in vivo
kochia (Kochia scoparia) = conditions: Bassia scoparia; for pest or weed control at 8 g/ha: 8 g ai/ha; for pest or weed control at 16 g/ha: 16 g ai/ha; for pest or weed control at 31 g/ha: 31 g ai/ha; for pest or weed control at 62 g/ha: 62 g ai/ha
How it was run: (§1)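 Greenhouse herbicide screen, visual readout. Compound in solvent/surfactant applied preemergence at planting or postemergence to 1- to 4-leaf plants; assessed at 12–14 days on a 0–100 control scale.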

[1] = system: velvetleaf (Abutilon theophrasti); conditions: Abutilon theophrasti; for pest or weed control at 8 g/ha: 8 g ai/ha; for pest or weed control at 16 g/ha: 16 g ai/ha; for pest or weed control at 31 g/ha: 31 g ai/ha; for pest or weed control at 62 g/ha: 62 g ai/ha
How it was run: as §1

[2] = system: woolly cupgrass (Eriochloa villosa); conditions: Eriochloa villosa; for pest or weed control at 8 g/ha: 8 g ai/ha; for pest or weed control at 16 g/ha: 16 g ai/ha; for pest or weed control at 31 g/ha: 31 g ai/ha; for pest or weed control at 62 g/ha: 62 g ai/ha
How it was run: as §1

[3] = system: morningglory (Ipomoea coccinea); conditions: Ipomoea; for pest or weed control at 8 g/ha: 8 g ai/ha; for pest or weed control at 31 g/ha: 31 g ai/ha; for pest or weed control at 62 g/ha: 62 g ai/ha
How it was run: as §1

[4] = system: common (oilseed) sunflower (Helianthus annuus); conditions: Helianthus annuus, pre-emergence, Preemergence, read-out: Plant response rating, Sunflower
How it was run: as §1

[5] = system: pigweed (Amaranthus retroflexus); conditions: Amaranthus retroflexus; for pest or weed control at 8 g/ha: 8 g ai/ha; for pest or weed control at 16 g/ha: 16 g ai/ha; for pest or weed control at 31 g/ha: 31 g ai/ha; for pest or weed control at 62 g/ha: 62 g ai/ha
How it was run: as §1

[6] = system: johnsongrass (Sorghum halepense); conditions: Sorghum halepense, post-emergence, Postemergence
How it was run: as §1

[7] = post-emergence, Postemergence, read-out: Plant response rating (scale of 0 to 100), Kochia
[8] = pre-emergence, Preemergence, scale 0 to 100, 0 no effect, 100 complete control, read-out: Plant response rating, Kochia
[9] = post-emergence, Postemergence, read-out: Plant response rating (scale of 0 to 100), Velvetleaf
[10] = pre-emergence, Preemergence, scale 0 to 100, 0 no effect, 100 complete control, read-out: Plant response rating, Velvetleaf
[11] = post-emergence, Postemergence, read-out: Plant response rating (scale of 0 to 100), Cupgrass, Woolly
[12] = pre-emergence, Preemergence, scale 0 to 100, 0 no effect, 100 complete control, read-out: Plant response rating, Cupgrass, Woolly
[13] = post-emergence, Postemergence, read-out: Plant response rating (scale of 0 to 100), Morningglory
[14] = pre-emergence, Preemergence, scale 0 to 100, 0 no effect, 100 complete control, read-out: Plant response rating, Morningglory
[15] = post-emergence, Postemergence, read-out: Plant response rating (scale of 0 to 100), Pigweed
[16] = pre-emergence, Preemergence, scale 0 to 100, 0 no effect, 100 complete control, read-out: Plant response rating, Pigweed

Compound: Nc1nc(-c2ccc(Br)cc2)nc(C(=O)O)c1Cl [Compound 95, 6-amino-2-(4-bromophenyl)-5-chloro-4-pyrimidinecarboxylic acid]
- pest or weed control at 8 g/ha (kochia (Kochia scoparia); post-emergence, Postemergence, scale 0 to 100, read-out: Plant response rating, Kochia): 90%
- pest or weed control at 16 g/ha (kochia (Kochia scoparia); [7]): 95%
- pest or weed control at 31 g/ha (kochia (Kochia scoparia); [7]): 95%
- pest or weed control at 62 g/ha (kochia (Kochia scoparia); [7]): 95%
- pest or weed control at 8 g/ha (kochia (Kochia scoparia); pre-emergence, Preemergence, scale 0 to 100 (0 no effect, 100 complete control), read-out: Plant response rating, Kochia): 0%
- pest or weed control at 16 g/ha (kochia (Kochia scoparia); [8]): 0%
- pest or weed control at 31 g/ha (kochia (Kochia scoparia); [8]): 40%
- pest or weed control at 62 g/ha (kochia (Kochia scoparia); [8]): 45%
- pest or weed control at 8 g/ha ([1]; post-emergence, Postemergence, scale 0 to 100, read-out: Plant response rating, Velvetleaf): 95%
- pest or weed control at 16 g/ha [1, 9]: 95%
- pest or weed control at 31 g/ha [1, 9]: 100%
- pest or weed control at 62 g/ha [1, 9]: 100%
- pest or weed control at 8 g/ha ([1]; pre-emergence, Preemergence, scale 0 to 100 (0 no effect, 100 complete control), read-out: Plant response rating, Velvetleaf): 0%
- pest or weed control at 16 g/ha [1, 10]: 0%
- pest or weed control at 31 g/ha [1, 10]: 60%
- pest or weed control at 62 g/ha [1, 10]: 90%
- pest or weed control at 8 g/ha ([2]; post-emergence, Postemergence, scale 0 to 100, read-out: Plant response rating, Cupgrass, Woolly): 75%
- pest or weed control at 16 g/ha [2, 11]: 75%
- pest or weed control at 31 g/ha [2, 11]: 75%
- pest or weed control at 62 g/ha [2, 11]: 80%
- pest or weed control at 8 g/ha ([2]; pre-emergence, Preemergence, scale 0 to 100 (0 no effect, 100 complete control), read-out: Plant response rating, Cupgrass, Woolly): 0%
- pest or weed control at 16 g/ha [2, 12]: 0%
- pest or weed control at 31 g/ha [2, 12]: 0%
- pest or weed control at 62 g/ha [2, 12]: 5%
- pest or weed control at 8 g/ha ([3]; post-emergence, Postemergence, scale 0 to 100, read-out: Plant response rating, Morningglory): 60%
- pest or weed control at 31 g/ha [3, 13]: 80%
- pest or weed control at 62 g/ha [3, 13]: 95%
- pest or weed control at 8 g/ha ([3]; pre-emergence, Preemergence, scale 0 to 100 (0 no effect, 100 complete control), read-out: Plant response rating, Morningglory): 0%
- pest or weed control at 16 g/ha ([3]; pre-emergence, Preemergence, 16 g ai/ha, scale 0 to 100, 0 no effect, 100 complete control, read-out: Plant response rating, Morningglory): 0%
- pest or weed control at 31 g/ha [3, 14]: 10%
- pest or weed control at 62 g/ha [3, 14]: 60%
- pest or weed control at 8 g/ha ([4]; 8 g ai/ha, scale 0 to 100 (0 no effect, 100 complete control)): 5%
- pest or weed control at 16 g/ha ([4]; 16 g ai/ha, scale 0 to 100, 0 no effect, 100 complete control): 40%
- pest or weed control at 31 g/ha ([4]; 31 g ai/ha, scale 0 to 100, 0 no effect, 100 complete control): 95%
- pest or weed control at 62 g/ha ([4]; 62 g ai/ha, scale 0 to 100, 0 no effect, 100 complete control): 100%
- pest or weed control at 8 g/ha ([5]; post-emergence, Postemergence, scale 0 to 100, read-out: Plant response rating, Pigweed): 90%
- pest or weed control at 16 g/ha [5, 15]: 95%
- pest or weed control at 31 g/ha [5, 15]: 100%
- pest or weed control at 62 g/ha [5, 15]: 100%
- pest or weed control at 8 g/ha ([5]; pre-emergence, Preemergence, scale 0 to 100 (0 no effect, 100 complete control), read-out: Plant response rating, Pigweed): 50%
- pest or weed control at 16 g/ha [5, 16]: 90%
- pest or weed control at 31 g/ha [5, 16]: 100%
- pest or weed control at 62 g/ha [5, 16]: 100%
- pest or weed control at 8 g/ha ([6]; 8 g ai/ha, scale 0 to 100, read-out: Plant response rating, Johnsongrass): 55%
- pest or weed control at 16 g/ha ([6]; 16 g ai/ha, read-out: Plant response rating (scale of 0 to 100), Johnsongrass): 70%
